Data taken from patent US20140303164A1, “THERAPEUTIC COMPOUNDS” (Gilead Sciences, Inc., priority 2013, published 2014).

System: HIV-IIIb
Assay: Test A: Antiviral Assay in MT4 Cells
Type: cell-based, HIV-1
Conditions: for inhibition at 0.2 µM / inhibition at 2 µM: Human immunodeficiency virus 1, IIIB, MT4, 120 h; for inhibition at 0.2 µM: read-out: % inhibition at 0.2 μM; for inhibition at 2 µM: read-out: % inhibition at 2 μM; for Response at 0.2 μM: percent inhibition of virus-induced cell killing at 0.2 μM; for Response at 0.2 μM / Response at 2 μM: comparison with previously published compounds (WO 2013/006738); for Response at 2 μM: percent inhibition of virus-induced cell killing at 2 μM
Experimental: Test A: Antiviral Assay in MT4 Cells
MT-4 cells were next mixed with HIV-IIIb at an m.o.i of 0.003 for 1 hour, after which time 35 μL of virus/cell mixture (2000 cells) was immediately added to each well containing 40 μL of diluted compound. The plates were then incubated at 37° C. for 5 days. […] Cell lysis was carried out by incubating at room temperature for 10 min and then chemiluminescence was read.

CC(C)(O)C#Cc1ccc(-c2ccc3c(c2)C(=O)NC32CC2)c([C@H](Cc2cc(F)cc(F)c2)NC(=O)Cn2nc(C(F)(F)F)c3c2C(F)(F)[C@@H]2C[C@H]32)n1 [Compound 3D, 2-((3bS,4aR)-5,5-difluoro-3-(trifluoromethyl)-3b,4,4a,5-tetrahydro-1H-cyclopropa[3,4]cyclopenta[1,2-c]pyrazol-1-yl)-N—((S)-2-(3,5-difluorophenyl)-1-(6-(3-hydroxy-3-methylbut-1-yn-1-yl)-3-(3′-oxospiro[cyclopropane-1,1′-isoindolin]-5′-yl)pyridin-2-yl)ethyl)acetamide]
inhibition at 0.2 µM: 82%

O=C(Cn1nc(C(F)F)c2c1C(F)(F)CCC2(F)F)N[C@@H](Cc1cc(F)cc(F)c1)c1ncc(-c2cnc3[nH]ccc3c2)cc1-c1cnc2[nH]ccc2c1 [Compound 11, (S)—N-(1-(3,5-di(1H-pyrrolo[2,3-b]pyridin-5-yl)pyridin-2-yl)-2-(3,5-difluorophenyl)ethyl)-2-(3-(difluoromethyl)-4,4,7,7-tetrafluoro-4,5,6,7-tetrahydro-1H-indazol-1-yl)acetamide]
inhibition at 0.2 µM: 3%

Cn1nc(N[S+](C)[O-])c2c(Cl)ccc(-c3ccc(C#CC(C)(C)O)nc3[C@H](Cc3cc(F)cc(F)c3)NC(=O)Cn3nc(C(F)F)c4c3C(F)(F)[C@@H]3C[C@H]43)c21 (stereo partly drawn) [Compound 180C, N-((1S)-1-(3-(4-chloro-1-methyl-3-(methylsulfinamido)-1H-indazol-7-yl)-6-(3-hydroxy-3-methylbut-1-yn-1-yl)pyridin-2-yl)-2-(3,5-difluorophenyl)ethyl)-2-((3b-S,4aR)-3-(difluoromethyl)-5,5-difluoro-3b,4,4a,5-tetrahydro-1H-cyclopropa[3,4]cyclopenta[1,2-c]pyrazol-1-yl)acetamide]
inhibition at 0.2 µM: 100%
inhibition at 2 µM: 100%

CC(C)(O)C#Cc1ccc(-c2ccc(F)c(C(N)=O)c2)c([C@H](Cc2cc(F)cc(F)c2)NC(=O)Cn2nc(C(F)(F)F)c3c2C(F)(F)[C@@H]2C[C@H]32)n1 [Compound 18, 5-(2-((S)-1-(2-((3bS,4aR)-5,5-difluoro-3-(trifluoromethyl)-3b,4,4a,5-tetrahydro-1H-cyclopropa[3,4]cyclopenta[1,2-c]pyrazol-1-yl)acetamido)-2-(3,5-difluorophenyl)ethyl)-6-(3-hydroxy-3-methylbut-1-yn-1-yl)pyridin-3-yl)-2-fluorobenzamide]
Response at 0.2 μM: 96%
Response at 2 μM: 90%

COc1cc(-c2ccc(-c3ccc4c(c3)C(=O)NC4)c([C@H](Cc3cc(F)cc(F)c3)NC(=O)Cn3nc(C(F)F)c4c3C(F)(F)CCC4(F)F)n2)ccn1 [Compound 8C, (S)-2-(3-(difluoromethyl)-4,4,7,7-tetrafluoro-4,5,6,7-tetrahydro-1H-indazol-1-yl)-N-(2-(3,5-difluorophenyl)-1-(2′-methoxy-5-(3-oxoisoindolin-5-yl)-[2,4′-bipyridin]-6-yl)ethyl)acetamide]
inhibition at 0.2 µM: 6%

CC(C)(O)C#Cc1ccc(-c2cccc3c2CNC3=O)c([C@H](Cc2cc(F)cc(F)c2)NC(=O)Cn2nc(C(F)(F)F)c3c2C(F)(F)[C@@H]2C[C@H]32)n1 [Compound 15, 2-((3bS,4aR)-5,5-difluoro-3-(trifluoromethyl)-3b,4,4a,5-tetrahydro-1H-cyclopropa[3,4]cyclopenta[1,2-c]pyrazol-1-yl)-N—((S)-2-(3,5-difluorophenyl)-1-(6-(3-hydroxy-3-methylbut-1-yn-1-yl)-3-(1-oxoisoindolin-4-yl)pyridin-2-yl)ethyl)acetamide]
% inhibition at 2 μM (percent inhibition of virus-induced cell killing at 2 μM drug concentration, from dose response curve, MT-4 cells, HIV-IIIb, 5 days, values above 100 normalized to 100): 94%

Cn1nc(NS(C)(=O)=O)c2c(F)ccc(-c3ccc(C#CC(C)(C)O)nc3[C@H](Cc3cc(F)cc(F)c3)NC(=O)Cn3nc(C(F)F)c4c3C(F)(F)[C@@H]3C[C@H]43)c21 [Compound 75, 2-((3b-S,4aR)-3-(difluoromethyl)-5,5-difluoro-3b,4,4a,5-tetrahydro-1H-cyclopropa[3,4]cyclopenta[1,2-c]pyrazol-1-yl)-N—((S)-2-(3,5-difluorophenyl)-1-(3-(4-fluoro-1-methyl-3-(methylsulfonamido)-1H-indazol-7-yl)-6-(3-hydroxy-3-methylbut-1-yn-1-yl)pyridin-2-yl)ethyl)acetamide]
inhibition at 0.2 µM: 92%
inhibition at 2 µM: 93%

COc1ccc(-c2ccc(C#CC(C)(C)O)nc2[C@H](Cc2cc(F)cc(F)c2)NC(=O)Cn2nc(C(F)F)c3c2C(F)(F)[C@@H]2C[C@H]32)c2c1c(NS(C)(=O)=O)nn2C [Compound 141D, 2-((3b-S,4aR)-3-(difluoromethyl)-5,5-difluoro-3b,4,4a,5-tetrahydro-1H-cyclopropa[3,4]cyclopenta[1,2-c]pyrazol-1-yl)-N—((S)-2-(3,5-difluorophenyl)-1-(6-(3-hydroxy-3-methylbut-1-yn-1-yl)-3-(4-methoxy-1-methyl-3-(methylsulfonamido)-1H-indazol-7-yl)pyridin-2-yl)ethyl)acetamide]
inhibition at 0.2 µM: 100%
inhibition at 2 µM: 100%

Cc1ccc(-c2ccc(C#CC(C)(C)O)nc2[C@H](Cc2cc(F)cc(F)c2)NC(=O)Cn2nc(C(F)F)c3c2C(F)(F)[C@@H]2C[C@H]32)c2c1c(NS(C)(=O)=O)nn2C [Compound 112D, 2-((3b-S,4aR)-3-(difluoromethyl)-5,5-difluoro-3b,4,4a,5-tetrahydro-1H-cyclopropa[3,4]cyclopenta[1,2-c]pyrazol-1-yl)-N—((S)-2-(3,5-difluorophenyl)-1-(3-(1,4-dimethyl-3-(methylsulfonamido)-1H-indazol-7-yl)-6-(3-hydroxy-3-methylbut-1-yn-1-yl)pyridin-2-yl)ethyl)acetamide]
inhibition at 0.2 µM: 97%
inhibition at 2 µM: 97%

CC(C)(O)C#Cc1ccc(-c2ccc3c(c2)C(=O)NC3)c([C@H](Cc2cc(F)cc(F)c2)NC(=O)Cn2nc(C(F)F)c3c2C(F)(F)CCC3(F)F)n1 [Compound 9B, (S)-2-(3-(difluoromethyl)-4,4,7,7-tetrafluoro-4,5,6,7-tetrahydro-1H-indazol-1-yl)-N-(2-(3,5-difluorophenyl)-1-(6-(3-hydroxy-3-methylbut-1-yn-1-yl)-3-(3-oxoisoindolin-5-yl)pyridin-2-yl)ethyl)acetamide]
inhibition at 0.2 µM: 92%

CC(C)(O)C#Cc1cnc([C@H](Cc2cc(F)cc(F)c2)NC(=O)Cn2nc(C(F)F)c3c2C(F)(F)CCC3(F)F)c(-c2ccc3c(c2)C(=O)NC3)c1 [Compound 4H, (S)-2-(3-(difluoromethyl)-4,4,7,7-tetrafluoro-4,5,6,7-tetrahydro-1H-indazol-1-yl)-N-(2-(3,5-difluorophenyl)-1-(5-(3-hydroxy-3-methylbut-1-ynyl)-3-(3-oxoisoindolin-5-yl)pyridin-2-yl)ethyl)acetamide]
inhibition at 0.2 µM: 8%

Cn1nc(NS(C)(=O)=O)c2c(Cl)ccc(-c3ccc(C#CC(C)(C)O)nc3[C@H](Cc3cc(F)cc(F)c3)NC(=O)Cn3nc(C(F)(F)F)c4c3C(F)(F)[C@@H]3C[C@H]43)c21 [Compound 78, N—((S)-1-(3-(4-chloro-1-methyl-3-(methylsulfonamido)-1H-indazol-7-yl)-6-(3-hydroxy-3-methylbut-1-yn-1-yl)pyridin-2-yl)-2-(3,5-difluorophenyl)ethyl)-2-((3b-S,4aR)-5,5-difluoro-3-(trifluoromethyl)-3b,4,4a,5-tetrahydro-1H-cyclopropa[3,4]cyclopenta[1,2-c]pyrazol-1-yl)acetamide]
inhibition at 0.2 µM: 98%
inhibition at 2 µM: 98%

O=C(Cn1nc(C(F)F)c2c1C(F)(F)CCC2(F)F)N[C@@H](Cc1cc(F)cc(F)c1)c1nc(-c2cc[nH]c(=O)c2)ccc1-c1ccc2c(c1)C(=O)NC2 [Compound 12, (S)-2-(3-(difluoromethyl)-4,4,7,7-tetrafluoro-4,5,6,7-tetrahydro-1H-indazol-1-yl)-N-(2-(3,5-difluorophenyl)-1-(2′-oxo-5-(3-oxoisoindolin-5-yl)-1′,2′-dihydro-[2,4′-bipyridin]-6-yl)ethyl)acetamide]
inhibition at 0.2 µM: 1%

NC(=O)c1ccc(-c2cnc3[nH]ccc3c2)c([C@H](Cc2cc(F)cc(F)c2)NC(=O)Cn2nc(C(F)F)c3c2C(F)(F)CCC3(F)F)n1 [Compound 1B, (S)-6-(1-(2-(3-(difluoromethyl)-4,4,7,7-tetrafluoro-4,5,6,7-tetrahydro-1H-indazol-1-yl)acetamido)-2-(3,5-difluorophenyl)ethyl)-5-(1H-pyrrolo[2,3-b]pyridin-5-yl)picolinamide]
inhibition at 0.2 µM: 17%

Cn1nc(NS(C)(=O)=O)c2c(Cl)ccc(-c3ccc(C#CC(C)(O)C(F)F)nc3[C@H](Cc3cc(F)cc(F)c3)NC(=O)Cn3nc(C(F)F)c4c3C(F)(F)[C@@H]3C[C@H]43)c21 (stereo partly drawn) [Compound 169, N-((1S)-1-(3-(4-chloro-1-methyl-3-(methylsulfonamido)-1H-indazol-7-yl)-6-(4,4-difluoro-3-hydroxy-3-methylbut-1-yn-1-yl)pyridin-2-yl)-2-(3,5-difluorophenyl)ethyl)-2-((3b-S,4aR)-3-(difluoromethyl)-5,5-difluoro-3b,4,4a,5-tetrahydro-1H-cyclopropa[3,4]cyclopenta[1,2-c]pyrazol-1-yl)acetamide]
inhibition at 0.2 µM: 92%
inhibition at 2 µM: 92%

NC(=O)c1cc(-c2ccc(-c3ccc(F)c(C(N)=O)c3)c([C@H](Cc3cc(F)cc(F)c3)NC(=O)Cn3nc(C(F)F)c4c3C(F)(F)CCC4(F)F)n2)ccc1F [Compound 5G, (S)-5,5′-(6-(1-(2-(3 (difluoromethyl)-4,4,7,7-tetrafluoro-4,5,6,7-tetrahydro-1H-indazol-1-yl)acetamido)-2-(3,5-difluorophenyl)ethyl)pyridine-2,5-diyl)bis(2-fluorobenz amide)]
Response at 0.2 μM: 3%
Response at 2 μM: 58%
